Data taken from PubChem BioAssay (NCI).
Where “and” joins values, the source holds several entries; their conditions need not be identical. Equal values may be shown once.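 Each compound was tested at five concentrations against cells in 96-well plates for 48 hours. The concentration for 50% growth inhibition is given as GI50. TGI denotes the concentration required for complete inhibition of growth.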

Tests used:
Assay in all cases: inhibition of tumour cell growth, NCI panel, 48 h
SK-MEL-2 melanoma = test system: SK-MEL-2 melanoma
HOP-62 NSCLC = test system: HOP-62 NSCLC
SF-295 CNS = test system: SF-295 CNS
786-0 renal = test system: 786-0 renal
NCI-H23 lung = test system: NCI-H23 lung
PC-3 prostate = test system: PC-3 prostate
A498 renal = test system: A498 renal
MDA-MB-435 = test system: MDA-MB-435
DMS 114 small cell lung = test system: DMS 114 small cell lung

Row | SMILES | GI50 (SK-MEL-2 melanoma) [µM] | TGI (SK-MEL-2 melanoma) [µM] | GI50 (HOP-62 NSCLC) [µM] | TGI (HOP-62 NSCLC) [µM] | GI50 (SF-295 CNS) [µM] | TGI (SF-295 CNS) [µM] | GI50 (786-0 renal) [µM] | TGI (786-0 renal) [µM] | GI50 (NCI-H23 lung) | TGI (NCI-H23 lung) [µM] | GI50 (PC-3 prostate) | TGI (PC-3 prostate) [µM] | GI50 (A498 renal) [µM] | TGI (A498 renal) | GI50 (MDA-MB-435) [µM] | TGI (MDA-MB-435) [µM] | GI50 (DMS 114 small cell lung) [µM] | TGI (DMS 114 small cell lung) [µM]
1 | CN1CCN(c2ccc(NC3=C(Cl)C(=O)c4ncccc4C3=O)cc2C#N)CC1 | 2.26 | 4.69 | 11.8 | 34.7 | 15 | 28.8 | 1.72 | 3.23 | 2.15 µM | 6.22 | 2.29 µM | 9.34 | 11.7 | 25.3 µM | 1.91 | 3.67 |  | 
2 | Cc1cc(C)cc(Nc2ccc([N+](=O)[O-])c(NCCN3CCOCC3)n2)c1 |  | > 100 |  | 44.9 | 0.000446 | 25.8 |  | 18.8 | 0.00739 µM and 0.0275 µM | > 100 | 0.00177 µM and 0.0106 µM | > 100 | 0.000606 | 0.00915 µM and 0.0676 µM |  | 0.0115 |  | 
3 | O=C(NNS(=O)(=O)c1ccc(F)cc1)c1cccnc1Nc1ccc(Cl)cc1Cl | 42.3 | > 100 | 30.9 | 84.5 | 36.9 | > 100 | 23 | 53.6 | 36.5 µM | > 100 | 14.8 µM | 32.1 | 17.3 | 36.5 µM | 84.4 | > 100 |  | 
4 | CC(=O)OC1CCC2(C)C(=CCC3C4CCC5(OC6CC(C)CN(C(C)=O)C6C5C)C(C)=C4C(=O)C32)C1 (centres undefined) |  | 31.9 |  | 46.4 |  | 42 |  | 72.6 |  | 29.6 |  | 28.6 |  | 31.2 µM |  | 32 |  | 
5 | Cc1cc(C)c2c(SCc3ccc(Cl)cc3Cl)nc(N)nc2n1 |  | > 100 |  | > 100 |  | > 100 |  | 41.8 |  | > 100 |  | > 100 |  | > 100 µM |  | > 100 |  | 
6 | C/C1=C/C(=O)O[C@@H]2C[C@@H](CC[C@H](C)/C=C\C=C\CC1)O[C@@](OCCc1ccccc1)([C@@H]1CSC(=O)N1)C2 | 0.917 | > 13.8 | 0.0777 | > 17.5 | 0.0383 | > 4.55 | 0.107 | > 17.5 | 0.142 µM | > 17.5 | 0.0754 µM | > 17.5 | 0.0313 | 0.133 µM | 0.324 | 6.12 |  | 
7 | c1cc[c]([Sn]([S]c2cccc3cccnc23)([S]c2cccc3cccnc23)[c]2ccccc2)cc1 | 0.16 | 0.538 | 0.411 | 1.75 | 0.353 | 1.4 | 0.212 | 0.502 | 0.198 µM | 0.46 |  |  | 0.0359 | 0.202 µM |  |  | 0.164 | 0.374
8 | COc1cc(NCC2COc3c(ccc(OC)c3OC)C2=O)c([N+](=O)[O-])cc1OC (centres undefined) |  | > 100 |  | > 100 |  | > 100 |  | > 100 |  | > 100 |  | > 100 |  | > 100 µM |  | > 100 |  | 
9 | C/C1=C\C/C=C(\C)[C@H]2CC(CC/C(C)=C/CC1)[C@](C)(C=O)O2 | > 100 | > 100 | 40.6 | > 100 | 28.9 | 96.2 | > 100 | > 100 | > 100 µM | > 100 | 88.2 µM | > 100 | 92.2 | > 100 µM | 66.1 | > 100 |  | 
